# Laboratory results as given in patent publication US20060240048A1 (priority 2002, published 2006).
# Target: T1, human cannabinoid CB2 receptor (Homo sapiens, UniProt P34972)
# T1 construct: expressed in transfected cells; host or cells: Saccharomyces cerevisiae strain MMY23
# Assay: Cannabinoid CB2 receptor agonist activity, yeast reporter assay (FDGlu fluorescence);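 for Emax: 100% equals maximal response of reference agonist HU210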
# Assay type: cell-based
# Conditions: for Emax: read-out: efficacy value (Emax) at the cloned human cannabinoid CB2 receptor
# T1 sequence (P34972 whole entry): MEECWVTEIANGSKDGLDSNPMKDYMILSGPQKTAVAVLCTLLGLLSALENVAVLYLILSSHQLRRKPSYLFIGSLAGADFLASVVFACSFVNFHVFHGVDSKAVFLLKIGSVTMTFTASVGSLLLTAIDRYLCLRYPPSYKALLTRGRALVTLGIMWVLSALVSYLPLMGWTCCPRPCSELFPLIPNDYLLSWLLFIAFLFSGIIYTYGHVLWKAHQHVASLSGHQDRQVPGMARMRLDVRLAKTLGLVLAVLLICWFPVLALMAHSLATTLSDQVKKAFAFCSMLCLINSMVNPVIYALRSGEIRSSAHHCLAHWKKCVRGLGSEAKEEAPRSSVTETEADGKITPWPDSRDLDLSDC
Structure (SMILES),EC50 [nM],Emax [%]
"O=C(NCC1CCC1)c1cnc(Nc2ccc(F)cc2F)cc1C(F)(F)F [Example 166, N-Cyclobutylmethyl-6-(2,4-difluoro-phenylamino)-4-tri-fluoromethyl-nicotinamide]",< 300,> 50
"O=C(NCC1CCCC1)c1cnc(Nc2ccc(F)cc2F)cc1C(F)(F)F [Example 167, N-Cyclopentylmethyl-6-(2,4-difluoro-phenylamino)-4-tri-fluoromethyl-nicotinamide]",< 300,> 50
"COc1ccc(Cl)cc1Nc1cc(C(F)(F)F)c(C(=O)NCC2CCC2)cn1 [Example 169, N-Cyclobutylmethyl-6-(2-methoxy-5-chloro-phenyl-amino)-4-trifluoromethyl-nicotinamide]",–,> 50
"O=C(NCC1CCOCC1)c1cnc(Nc2cc(Cl)ccc2O)cc1C(F)(F)F [Example 170, N-(Tetrahydropyran-4-yl-methyl)-6-(2-hydroxy-5-chloro-phenylamino)-4-trifluoromethyl-nicotinamide]",< 300,> 50
"Cc1cc(Cl)ccc1Nc1cc(C(F)(F)F)c(C(=O)NCC2CCCCC2)cn1 [Example 171, N-Cyclohexylmethyl-6-(2-methyl-4-chloro-phenyl-amino)-4-trifluoromethyl-nicotinamide]",< 300,> 50
"Cc1cc(Cl)ccc1Nc1cc(C(F)(F)F)c(C(=O)NCC2CCOCC2)cn1 [Example 172, N-(Tetrahydropyran-4-yl-methyl)-6-(2-methyl-4-chloro-phenylamino)-4-trifluoro-]",–,> 50
"O=C(NCC1CCCCCC1)c1cnc(Nc2cc(Cl)cc(Cl)c2)cc1C(F)(F)F [Example 175, N-Cycloheptylmethyl-6-(3,5-dichloro-phenyiamino)-4-trifluoromethyl-nicotinamide]",–,> 50
"O=C(NCC1CCOCC1)c1ccc(Nc2cccc(Cl)c2)nc1C(F)(F)F [Example 204, 6-(3-Chloro-phenylamino)-N-(tetrahydro-pyran-4-ylmethyl)-2-trifluoromethyl-nicotinamide]",< 300,> 50
"CC(C)c1nc(Nc2cccc(Cl)c2)ccc1C(=O)NCC1CCOCC1 [Example 208, 6-(3-Chloro-phenylamino)-2-isopropyl-N-(tetrahydro-pyran-4-ylmethyl)-nicotinamide]",< 300,> 50
"CC(C)c1nc(Nc2cccc(Cl)c2)ccc1C(=O)NCC1CCS(=O)(=O)C1 (centres unmarked) [Example 209, 6-(3-Chloro-phenylamino)-N-(1,1-dioxo-tetrahydrothiophen-3-ylmethyl)-2-isopropyl-nicotinamide]",< 300,> 50
"CC(C)c1nc(Nc2cccc(Cl)c2)ccc1C(=O)NCC1CCCC1 [Example 210, 6-(3-Chloro-phenylamino)-N-cyclopentylmethyl-2-isopropyl-nicotinamide]",< 300,> 50
"CC(C)c1nc(Nc2cccc(Cl)c2)ccc1C(=O)NCC1CCCCC1 [Example 211, 6-(3-Chloro-phenylamino)-N-cyclohexylmethyl-2-isopropyl-nicotinamide]",< 300,> 50
"CC(C)c1nc(Nc2ccc(Cl)cc2Cl)ccc1C(=O)NCC1CCC1 [Example 212, 6-(2,4-Dichloro-phenylamino)-N-cyclobutylmethyl-2-isopropyl-nicotinamide]",< 300,> 50
"CC(C)c1nc(Nc2ccc(Cl)cc2Cl)ccc1C(=O)NCC1CCCC1 [Example 213, 6-(2,4-Dichloro-phenylamino)-N-cyclopentylmethyl-2-isopropyl-nicotinamide]",< 300,> 50
"CC(C)c1nc(Nc2ccc(Cl)cc2Cl)ccc1C(=O)NCC1CCOCC1 [Example 214, 6-(2,4-Dichloro-phenylamino)-N-(tetrahydro-pyran-4-ylmethyl)-2-isopropyl-nicotinamide]",< 300,> 50
"CC(C)c1nc(Nc2ccc(Cl)cc2Cl)ccc1C(=O)NCC1CCS(=O)(=O)C1 (centres unmarked) [Example 215, 6-(2,4-Dichloro-phenylamino)-N-(1,1-tetrahydrothiophen-3-ylmethyl)-2-isopropyl-nicotinamide]",< 300,> 50
"CC(C)c1nc(Nc2cccc(F)c2)ccc1C(=O)NCC1CCC1 [Example 216, 6-(3-Fluoro-phenylamino)-N-cyclobutylmethyl-2-isopropyl-nicotinamide]",< 300,> 50
"CC(C)c1nc(Nc2cccc(F)c2)ccc1C(=O)NCC1CCCC1 [Example 217, 6-(3-Fluoro-phenylamino)-N-cyclopentylmethyl-2-isopropyl-nicotinamide]",< 300,> 50
"CC(C)c1nc(Nc2cccc(F)c2)ccc1C(=O)NCC1CCOCC1 [Example 218, 6-(3-Fluoro-phenylamino)-N-(tetrahydro-pyran-4-ylmethyl)-2-isopropyl-nicotinamide]",< 300,> 50

Structure (SMILES),EC50 [nM],Emax [%]
"CC(C)c1nc(Nc2cccc(F)c2)ccc1C(=O)NCC1CCS(=O)(=O)C1 (centres unmarked) [Example 219, 6-(3-Fluoro-phenylamino)-N-(1,1-dioxo-tetrahydrothiophen-3-ylmethyl)-2-isopropyl-nicotinamide]",< 300,> 50
"Cc1cc(C#N)ccc1Nc1cc(C(C)C)c(C(=O)NCC2CCOCC2)cn1 [Example 220, 6-(4-Cyano-2-methyl-phenylamino)-4-isopropyl-N-(tetrahydro-pyran-4-ylmethyl)-nicotinamide]",< 300,> 50
"CC(C)c1cc(Nc2cc(Cl)ccc2C#N)ncc1C(=O)NCC1CCOCC1 [Example 221, 6-(S-Chloro-2-cyano-phenylamino)-4-isopropyl-N-(tetrahydro-pyran-4-ylmethyl)-nicotinamide]",300 to 1000,< 30
"CC(C)c1cc(Nc2cccc(Cl)c2)ncc1C(=O)NCC1CCS(=O)(=O)C1 (centres unmarked) [Example 223, 6-(3-Chloro-phenylamino)-N-(1,1-dioxo-tetrahydro-1/^6-thiophen-3-ylmethyl)-4-isopropyl-nicotinamide]",< 300,> 50
"CC(C)c1cc(Nc2cccc(OC(F)(F)F)c2)ncc1C(=O)NCC1CCC1 [Example 224, N-Cyclobutylmethyl-4-isopropyl-6-(3-trifluoromethoxy-phenylamino)-nicotinamide]",< 300,> 50
"Cc1ccc(Br)cc1Nc1cc(C(C)C)c(C(=O)NCC2CCOCC2)cn1 [Example 234, 6-(5-Bromo-2-methyl-phenylamino)-4-isopropyl-N-(tetrahydro-pyran-4-ylmethyl)-nicotinamide]",< 300,> 50
"CC(C)c1cc(Nc2cc(F)ccc2Br)ncc1C(=O)NCC1CCOCC1 [Example 235, 6-(2-Bromo-5-fluoro-phenylamino)-4-isopropyl-N-(tetrahydro-pyran-4-ylmethyl)-nicotinamide]",< 300,> 50
"CC(C)c1cc(Nc2cc(C(F)(F)F)ccc2F)ncc1C(=O)NCC1CCOCC1 [Example 236, 6-(2-Fluoro-5-trifluoromethyl-phenylamino)-4-isopropyl-N-(tetrahydro-pyran-4-ylmethyl)-nicotinamide]",< 300,> 50
"CC(C)c1cc(Nc2cc(C(F)(F)F)ccc2Cl)ncc1C(=O)NCC1CCOCC1 [Example 237, 6-(2-Chloro-5-trifluoromethyl-phenylamino)-4-isopropyl-N-(tetrahydro-pyran-4-ylmethyl)-nicotinamide]",< 300,> 50
"CC(C)c1cc(Nc2cc(C(F)(F)F)ccc2Br)ncc1C(=O)NCC1CCOCC1 [Example 238, 6-(2-Bromo-5-trifluoromethyl-phenytamino)-4-isopropyl-N-(tetrahydro-pyran-4-ylmethyl)-nicotinamide]",< 300,> 50
"CC(C)c1cc(Nc2ccc(C#N)c(Br)c2)ncc1C(=O)NCC1CCOCC1 [Example 239, 6-(3-Bromo-4-cyano-phenylamino)-4-isopropyl-N-(tetrahydro-pyran-4-ylmethyl)-nicotinamide]",< 300,> 50
"CC(C)c1cc(Nc2ccc(OC(F)(F)F)cc2Br)ncc1C(=O)NCC1CCOCC1 [Example 240, 6-(2-Bromo-4-trifluoromethoxy-phenylamino)-4-isopropyl-N-(tetrahydro-pyran-4-ylmethyl)-nicotinamide]",< 300,> 50
"Cc1c(Cl)cccc1Nc1cc(C(C)C)c(C(=O)NCC2CCOCC2)cn1 [Example 241, 6-(3-Chloro-2-methyl-phenylamino)-4-isopropyl-N-(tetrahydro-pyran-4-ylmethyl)-nicotinamide]",< 300,> 50
"CC(C)c1cc(Nc2cc(F)cc(F)c2)ncc1C(=O)NCC1CCOCC1 [Example 242, 6-(3,5-Difluoro-phenylamino)-4-isopropyl-N-(tetrahydro-pyran-4-ylmethyl)-nicotinamide]",< 300,> 50
"CC(C)c1cc(Nc2ccc(F)cc2Cl)ncc1C(=O)NCC1CCOCC1 [Example 243, 6-(2-Chloro-4-fluoro-phenylamino)-4-isopropyl-N-(tetrahydro-pyran-4-ylmethyl)-nicotinamide]",< 300,> 50
"Cc1cc(Cl)ccc1Nc1cc(C(C)C)c(C(=O)NCC2CCOCC2)cn1 [Example 244, 6-(4-Chloro-2-methyl-phenylamino)-4-isopropyl-N-(tetrahydro-pyran-4-ylmethyl)-nicotinamide]",< 300,> 50
"CC(C)c1cc(Nc2cccc(C(F)(F)F)c2F)ncc1C(=O)NCC1CCCC1 [Example 245, 6-(2-Fluoro-3-trifluoromethyl-phenylamino)-N-cyclopentylmethyl-4-isopropyl-nicotinamide]",< 300,> 50
"Cc1cc(Cl)ccc1Nc1cc(C(C)C)c(C(=O)NCC2CCCC2)cn1 [Example 246, 6-(2-Methyl-4-chloro-phenylamino)-N-cyclopentylmethyl-4-isopropyl-nicotinamide]",< 300,> 50
